Measurements: US20040192641A1, “Special preparation of anticancer drugs made by novel nanotechnology” (priority 2003, published 2004)

How the values were obtained:
S180 = assay: Growth of transplanted tumor, S180 (tumor weight); type: in vivo, mice; conditions: 20 mg/kg i.p. from second day, tumor weight on 12th day
Experimental: (§1) Male mice, weight 20-22 g, were used in the experiment. 1×10^7 tumor cells were injected to mouse and PK-HHT-NP injected intraperitoneally began second day. All mice were sacrificed on the 12th days, isolated the tumor and weighed and calculated the inhibition rate of tumor weight.
(§2) Male mice, weight 20-22 g, were used in the experiment. 1×10^7 tumor cells were injected to mouse and CUR and PK-CUR-NP injected intraperitoneally began second day. All mice were sacrificed on the 12th days, isolated the tumor and weighed and calculated the inhibition rate of tumor weight.
(§3) Male mice, weight 20-22 g, were used in the experiment. 1×10^7 tumor cells were injected to mouse and ELE injected intraperitoneally began second day. All mice were sacrificed on the 12th days, isolated the tumor and weighed and calculated the inhibition rate of tumor weight.
(§4) Male mice, weight 20-22 g, were used in the experiment. 1×10^7 tumor cells were injected to mouse and CPT injected intraperitoneally began second day. All mice were sacrificed on the 12th days, isolated the tumor and weighed and calculated the inhibition rate of tumor weight.

tumor cells = assay: Stained dead tumor cells in peritoneal fluid of tumor-bearing mice (ELE, CPT); type: in vivo; conditions: 12th day of tumor inoculation
Excerpt: (§5) The acceptable criterion for determining the anti-tumor efficacy of the formulation over the free ELE and PK-ELE-NP are the determination of the life span prolongation.
(§6) The number of dead cells in the peritoneal fluid of mice treated with PK-ELE-NP formulation increased life span when compared to free ELE.
(§7) The acceptable criterion for determining the anti-tumor efficacy of the formulation over the free drug and PK-CPT-NP are the determination of the life span prolongation. The number of dead cells in the peritoneal fluid of mice treated with PK-CPT-NP formulation increased life span when compared to free CPT.

tumor-bearing mice = assay: Survival time of tumor-bearing mice (ELE, CPT); conditions: mouse, in vivo
Excerpt: as §5, §6, §7

[1] = test system: NNK-induced lung tumorigenesis (pulmonary adenomas); assay: NNK-induced lung tumorigenesis; type: in vivo, mice; conditions: 20 mg/kg daily by injection; 10 μmol NNK i.p.; sixteen weeks
Experimental: The capacity of tobacco-specific nitrosamine 4-(methylnitrosamino)-1-(3-pyridyl)-1-butanone (NNK) to induce tumor incidence was recognized.
(§8) Every group had 20 mice. For treatment group, each mouse was gave free CUR and PK-CUR-NP by injection at dose of 20 mg/kg daily. For control group, each mouse was gave same volume of physiological saline. Three days later, mice were gave 10 μmol NNK (in 0.1 ml saline) by i.p. injection. Sixteen weeks after these treatments the mice were killed and pulmonary adenomas were counted. The statistical significance of bioassay data was determined by student's test.
as §8, with “ELE” for “free CUR”, “PK-ELE-NP” for “PK-CUR-NP”
as §8, with “CPT” for “CUR”, “PK-CPT-NP” for “PK-CUR-NP”

[2] = test system: S180, ECS, HCS, ARS, U-14 and L615 transplanted tumor; assay: Growth of transplanted tumors; type: in vivo, mice; conditions: 20 mg/kg
Experimental: as §1, §2, §3, §4

tumor S-180 = assay: Survival time of tumor-bearing mice (CUR); conditions: mouse, in vivo
Excerpt: The acceptable criterion for determining the anti-tumor efficacy of the free CUR and PK-CUR-NP are the determination of the life span prolongation.
The number of dead cells in the peritoneal fluid of mice treated with PK-CUR-NP increased life span when compared to free CUR.

[3] = test system: oral epidermoid carcinoma (KB); assay: Inhibition of tumor cell proliferation, KB; type: cell-based, human; conditions: 72 hours; for Inhibition (%): 50 ng/ml
Experimental: Human tumor cell lines: Hela leukemia HL-60, malignant melanocarcinoma B16, oral epidermoid carcinoma (KB), lung carcinoma (A549), breast carcinoma MCF-7, adenocarcinoma of stomach.
(§9) Animal tumor cell lines: Walker carcinoma, LLC-WRC-256, malignant melanoma (RMMI 1846), 3T3, and S-180 sarcoma (CCRF-180). All lines were routinely cultured in the RPMI1640 medium supplemented 20% fetal calf serum. The experiment was carried out in 96 microplate, each well had 5×10^5 cells and given desired concentration of 1 μg/ml (1×10^−6 g/ml) drug. Then the plate was incubated at 37° C. in an atmosphere of humidified air enriched with 5 percent carbon dioxide for 72 hours.
Inhibition percent rate of tumor cell proliferation was obtained according to the bellow formula. [formula]
as §9, with “hours. Concentration of CUR or PK-CUR-NP is 50ng/ml.” for “hours.”
as §9, with “hours. Concentration of ELE or PK-ELE-NP is 50 ng/ml.” for “hours.”
Animal tumor cell lines: Walker carcinoma, LLC-WRC-256, malignant melanoma (RMMI 1846), 3T3, and S-180 sarcoma (CCRF-180). All lines were routinely cultured in the RPMI1640 medium supplemented 20% fetal calf serum. […]

Molecule: CC[C@@]1(O)C(=O)OCc2c1cc1n(c2=O)Cc2cc3ccccc3nc2-1 [CPT, Camptothecin]
- Inhibition (%) of transplanted tumor (S180): 63.2 ± 12.1%
- Number of stained dead tumor cells (1 × 10^6 cells mL^−1) (tumor cells): 5.36 ± 0.95 1 × 10^6 cells mL^−1
- Increase in life span T/C (%) (tumor-bearing mice): 144.3%
- MST (tumor-bearing mice): 33 ± 4.5 days
- Tumor incidence (%) [1]: 36.2 ± 6.2%
- growth of transplanted tumor [2]: could inhibit the growth

Molecule: C=C1C[C@@]2(O)O[C@@]3(C[C@H]2C(C)C)[C@@H](C)CC[C@@H]13 [CUR, Curcumol]
- Increase in life span T/C (%) (tumor S-180): 134.78%
- MST (tumor S-180): 31 ± 1.9 days
- Inhibition (%) of transplanted tumor (S180): 63.7 ± 7.3%
- Inhibition (%) [3]: 60.8 ± 9.1%
- Tumor incidence (%) [1]: 35.8 ± 5.8%
- growth of transplanted tumor [2]: could inhibit the growth

Molecule: COC(=O)C[C@](O)(CCCC(C)(C)O)C(=O)O[C@@H]1C(OC)=C[C@]23CCCN2CCc2cc4c(cc2[C@H]13)OCO4 [HHT, Homoharringtonine]
- Inhibition (%) of transplanted tumor (S180): 76 ± 8%
- inhibition at 1 µg/mL ([3]; Homo sapiens, 1 μg/ml): 80 ± 8.5%

Molecule: Eelemene
- Inhibition (%) of transplanted tumor (S180): 67.57 ± 9.1%
- Inhibition (%) [3]: 60.2 ± 13.2%
- Number of stained dead tumor cells (1 × 10^6 cells mL^−1) (tumor cells): 5.80 ± 0.80 1 × 10^6 cells mL^−1
- Increase in life span T/C (%) (tumor-bearing mice): 144.3%
- MST (tumor-bearing mice): 33.2 days
- Tumor incidence (%) [1]: 34.8 ± 6.2%
- growth of transplanted tumor [2]: could inhibit the growth
